Tests used:
Format in all cases: biochemical
[1] = target: T1, human lysosomal acid β-galactosidase (GH35) (Homo sapiens, UniProt P16278); test: IC50, modified β-Gal assay in normal fibroblast homogenate; details: for IC50: normal fibroblasts, 4-methylumbelliferyl-β-D-galactopyranoside, pH 4.0, read-out: β-Gal human lys. (GH35)
T1 construct: endogenous in cells; host or cells: normal human skin fibroblasts (homogenate)
T1 sequence (P16278 29-677): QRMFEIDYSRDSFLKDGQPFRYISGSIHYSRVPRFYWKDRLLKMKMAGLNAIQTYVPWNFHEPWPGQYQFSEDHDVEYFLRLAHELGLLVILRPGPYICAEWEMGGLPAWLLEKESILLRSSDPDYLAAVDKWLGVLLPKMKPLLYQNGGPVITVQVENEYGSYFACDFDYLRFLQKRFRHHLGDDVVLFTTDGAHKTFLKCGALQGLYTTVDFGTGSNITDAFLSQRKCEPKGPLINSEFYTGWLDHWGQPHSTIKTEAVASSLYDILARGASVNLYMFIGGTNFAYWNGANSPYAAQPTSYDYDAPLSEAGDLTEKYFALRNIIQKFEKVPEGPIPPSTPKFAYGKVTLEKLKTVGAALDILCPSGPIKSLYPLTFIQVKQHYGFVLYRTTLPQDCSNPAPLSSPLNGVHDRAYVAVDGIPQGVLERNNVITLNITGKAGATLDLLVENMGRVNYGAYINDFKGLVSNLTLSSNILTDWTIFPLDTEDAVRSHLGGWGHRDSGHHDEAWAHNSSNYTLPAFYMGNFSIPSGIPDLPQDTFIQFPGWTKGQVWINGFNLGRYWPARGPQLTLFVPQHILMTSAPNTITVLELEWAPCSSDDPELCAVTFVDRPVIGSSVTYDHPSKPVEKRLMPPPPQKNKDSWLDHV
Experimental: Human β-galactosidase and β-hexosaminidase activity measurements were performed in duplicate assays, unless otherwise stated. Fibroblast cells were harvested by trypsinization in 0.9% NaCl containing 0.01% Triton, homogenized by sonication (3 × 10 s, Sonifier Bandelin Sonopuls, Bandelin, Berlin, Germany) and centrifuged at 13,000 rpm for 2 min in a table top centrifuge (Biofuge Pico, Heraeus, Hanau, Germany). Protein amounts were determined according to the method of Lowry.
For assessment of β-Gal activity, 20 µL of cell homogenate were mixed with 100 µL of 0.5 mM 4-methylumbelliferyl-β-D-galactopyranoside (Sigma-Aldrich, St. Louis, MO, USA), in 100 mM citrate buffer (pH 4.0) containing 100 mM NaCl and 0.02% NaN3. After incubation at 37 °C for 30 min, the reaction was stopped by adding 2.5 mL 400 mM glycine/NaOH (pH 10.4).
Modified β-Gal assays were used to estimate the half maximal inhibitory concentration (IC50) of the particular chaperone. For IC50 determination, 0.001 to 100 µM of chaperone was added to the assay mixture. Activity was measured in normal fibroblasts. Data analysis was performed with Microcal™ Origin® v6.0 (Origin Lab, Northampton, MA, USA) using a non-linear curve fitting module based on sigmoid curve fitting.
Potential chaperones were dissolved in DMSO and diluted in 10 mM phosphate buffer (pH 7.0) containing 100 mM NaCl, 0.01% NaN3, and 0.01% Triton for the IC50-measurements and in MEM for the in-vivo tests. The total DMSO concentration in the media was less than 1% and had no effect on β-Gal activity or cell viability.

[2] = target: T2, Fabrazyme = commercial recombinant lysosomal α-galactosidase (GH27) (Homo sapiens, UniProt P06280); test: Ki determination, Fabrazyme (acid α-galactosidase); details: 37 °C, pH 5.5, substrate 2,4-DNP α-Gal
T2 construct: purchased
T2 sequence (P06280 32-429): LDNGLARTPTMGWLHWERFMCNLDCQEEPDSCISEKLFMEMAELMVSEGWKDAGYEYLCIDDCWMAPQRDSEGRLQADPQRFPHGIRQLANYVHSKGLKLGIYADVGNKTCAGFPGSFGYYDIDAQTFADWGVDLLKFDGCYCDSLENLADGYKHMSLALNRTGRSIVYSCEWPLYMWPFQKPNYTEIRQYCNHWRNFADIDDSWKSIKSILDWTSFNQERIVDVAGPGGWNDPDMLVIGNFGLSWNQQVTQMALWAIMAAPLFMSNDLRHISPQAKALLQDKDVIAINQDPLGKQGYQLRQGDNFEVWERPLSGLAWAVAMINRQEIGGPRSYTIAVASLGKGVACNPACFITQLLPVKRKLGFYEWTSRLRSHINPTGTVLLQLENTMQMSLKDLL
Experimental: (§1) Kinetic studies were performed at 37 °C in an appropriate buffer (specific conditions depicted below). In a typical assay, the enzyme was incubated with different inhibitor concentrations for up to 5 min before initiating the reaction by the addition of substrate. The initial reaction rate was measured by monitoring the increase in absorbance at 400 nm for up to ten minutes using a Cary4000 (Varian, Palo Alto, CA, USA). Ki determinations were performed using at least two different substrate concentrations. For each inhibitor, a range of four to six inhibitor concentrations bracketing the ultimately determined Ki value was used for each substrate concentration. Dixon plots (1/v vs. [I]) were constructed to validate the use of competitive inhibition model. The data were then fit using non-linear regression analysis with Grafit 7.0 [Erithacus Software, UK].
(§2) n.i. stands for no inhibition or weak inhibition with an estimated Ki value higher than 1 mM.
Fabrazyme (Acid α-galactosidase): 20 mM sodium citrate, 50 mM sodium phosphate, 1.0 mM tetrasodium EDTA, 0.25% v/v Triton X-100® and 0.25% w/v taurocholic acid buffer (pH 5.5). Substrate: 2,4-DNP α-Gal, Km = 0.65 mM.

[3] = target: lac Z β-galactosidase from E. coli (GH2) (Escherichia coli, UniProt P00722); test: Ki determination, E. coli lac Z β-galactosidase
lac Z β-galactosidase from E. coli (GH2), sequence (P00722 2-1024): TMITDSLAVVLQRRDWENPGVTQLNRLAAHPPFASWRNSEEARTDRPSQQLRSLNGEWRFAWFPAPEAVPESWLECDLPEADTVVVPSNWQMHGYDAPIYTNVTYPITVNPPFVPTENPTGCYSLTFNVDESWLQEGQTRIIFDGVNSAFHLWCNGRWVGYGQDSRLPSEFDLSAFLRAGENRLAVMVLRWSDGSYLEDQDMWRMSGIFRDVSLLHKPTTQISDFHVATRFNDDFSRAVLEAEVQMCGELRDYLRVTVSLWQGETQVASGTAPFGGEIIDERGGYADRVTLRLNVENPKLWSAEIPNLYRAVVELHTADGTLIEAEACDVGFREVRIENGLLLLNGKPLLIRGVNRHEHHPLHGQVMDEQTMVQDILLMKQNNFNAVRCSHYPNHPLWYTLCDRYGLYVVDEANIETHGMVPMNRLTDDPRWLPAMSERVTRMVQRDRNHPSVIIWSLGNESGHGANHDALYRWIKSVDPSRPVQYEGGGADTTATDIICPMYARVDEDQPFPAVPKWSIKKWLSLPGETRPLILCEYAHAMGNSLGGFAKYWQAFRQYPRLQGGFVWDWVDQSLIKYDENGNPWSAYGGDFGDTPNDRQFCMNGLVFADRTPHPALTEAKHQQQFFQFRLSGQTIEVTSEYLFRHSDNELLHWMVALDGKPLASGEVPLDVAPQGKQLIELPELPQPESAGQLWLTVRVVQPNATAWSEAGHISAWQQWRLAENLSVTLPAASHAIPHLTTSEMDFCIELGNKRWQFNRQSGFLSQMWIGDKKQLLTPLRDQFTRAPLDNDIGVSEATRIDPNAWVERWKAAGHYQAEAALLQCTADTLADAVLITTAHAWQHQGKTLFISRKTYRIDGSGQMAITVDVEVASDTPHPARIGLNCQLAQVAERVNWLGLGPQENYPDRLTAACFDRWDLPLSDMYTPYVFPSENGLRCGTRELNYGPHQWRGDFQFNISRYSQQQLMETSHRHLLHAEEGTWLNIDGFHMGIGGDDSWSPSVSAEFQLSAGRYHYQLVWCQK
Experimental: as §1, §2
E. coli lac z β-galactosidase: 50 mM sodium phosphate, 1.0 mM MgCl2 (pH 7). Substrate: pNP β-Gal, Km = 60 µM.

Structure (SMILES)	IC50 [1] [µM]	Ki [2] [µM]	Ki [3] [µM]	fold weaker binding than 17, human lysosomal β-galactosidase ([1]; compared with hydroxylated inhibitor 17)	fold weaker binding than 17, GH2 bacterial glycosidase ([3]; compared to inhibitor 17)
CCCCCCCCNC1C=C(CO)C(O)C(O)C1O (stereo not drawn) [Compound 1, N-octyl-epi-valienamine]	0.51	> 1000	2.8		
CCCCCCCCN[C@H]1[C@H](O)[C@@H](O)[C@@H](O)[C@H]1CO [Compound 16]	0.42	> 1000	0.0132		
CN(C)c1cccc2c(S(=O)(=O)NCCCCCC[C@H]3NC[C@@H](O)[C@@H](O)[C@H]3CO)cccc12 [Compound 22]	0.094	> 1000	0.0004		
CN(C)c1cccc2c(S(=O)(=O)NCCCCCCN[C@H]3C[C@@H](O)[C@@H](O)[C@H]3CO)cccc12 [Compound 31, (1R,2S,3R,4S)-3-Hydroxymethyl-4-(6′-dansylaminohexylamino)cyclopentane-1,2-diol]	82.5	> 1000	0.0041		
CN(C)c1cccc2c(S(=O)(=O)NCCCCCCN[C@H]3[C@H](F)[C@@H](O)[C@@H](O)[C@H]3CO)cccc12 [Compound 37, (1S,2S,3S,4R,5R)-4-(6′-Dansylaminohexyl)amino-3-fluoro-5-hydroxymethylcyclopentane-1,2-diol]	34.9	> 1000	5.2	approx. 90 fold	approx. 500 fold

Reference: article PMC7504770, “Mechanistic Insights into the Chaperoning of Human Lysosomal-Galactosidase Activity: Highly Functionalized Aminocyclopentanes and C-5a-Substituted Derivatives of 4-epi-Isofagomine” (Molecules, 2020)
